Assay results: the supplement of paper PMC4862054

Assays:
Details in all cases: incubation time: 72 h
[1] = system: MDA-MB-436; test: normalised response (% of control), CellTox Green; higher = less cell death (100 = DMSO, 0 = benzethonium chloride kill control)
Outline: (§1)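 Compound was dispensed into 384-well plates at 5 concentrations in 10-fold steps spanning a 10,000-fold range specific to that compound. Breast cancer cell lines were added as 20 µl suspension and left for 72 h before CellTox Green fluorescence (485/520 nm) and then CellTiter-Glo luminescence, read after 10 min at room temperature. Each reported value is the normalised signal at one concentration, with 0.1 % DMSO set at 100 and a positive kill control at 0 on each plate.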

[2] = system: MDA-MB-453; test: as above
Outline: as §1

[3] = system: BT-474; test: as above
Outline: as §1

[4] = system: Hs578T; test: as above
Outline: as §1

[5] = system: DU-4475; test: as above
Outline: as §1

[6] = system: HCC1143; test: as above
Outline: as §1

[7] = system: CAL-148; test: as above
Outline: as §1

[8] = system: CAL-51; test: as above
Outline: as §1

[9] = system: BT-549; test: as above
Outline: as §1

[10] = system: HCC1599; test: as above
Outline: as §1

[11] = system: CAL-85-1; test: as above
Outline: as §1

[12] = system: CAL-120; test: as above
Outline: as §1

[13] = system: MDA-MB-231; test: as above
Outline: as §1

[14] = system: MCF-10A; test: as above
Outline: as §1

[15] = system: HCC1937; test: as above
Outline: as §1

[16] = system: MDA-MB-468; test: as above
Outline: as §1

[17] = system: MFM-223; test: as above
Outline: as §1

[18] = system: HDQ-P1; test: as above
Outline: as §1

[19] = system: MDA-MB-436; test: normalised response (% of control), CellTiter-Glo; higher = more viable cells (100 = DMSO, 0 = benzethonium chloride kill control)
Experimental: (§2)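 DSRT, 72 h incubation, CellTox Green / CellTiter-Glo readout. Signal is normalised to DMSO and benzethonium chloride controls. Value is the normalised response at dose 3.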

[20] = system: MDA-MB-453; test: as above
Experimental: as §2

[21] = system: BT-474; test: as above
Experimental: as §2

[22] = system: Hs578T; test: as above
Experimental: as §2

[23] = system: DU-4475; test: as above
Experimental: as §2

[24] = system: HCC1143; test: as above
Experimental: as §2

[25] = system: CAL-148; test: as above
Experimental: as §2

[26] = system: CAL-51; test: as above
Experimental: as §2

[27] = system: BT-549; test: as above
Experimental: as §2

[28] = system: HCC1599; test: as above
Experimental: as §2

[29] = system: CAL-85-1; test: as above
Experimental: as §2

[30] = system: CAL-120; test: as above
Experimental: as §2

[31] = system: MDA-MB-231; test: as above
Experimental: as §2

[32] = system: MCF-10A; test: as above
Experimental: as §2

[33] = system: HCC1937; test: as above
Experimental: as §2

[34] = system: MDA-MB-468; test: as above
Experimental: as §2

[35] = system: SK-BR-3; test: as above
Experimental: as §2

[36] = system: MFM-223; test: as above
Experimental: as §2

[37] = system: HDQ-P1; test: as above
Experimental: as §2

SMILES | normalised response [1] | normalised response [2] | normalised response [3] | normalised response [4] | normalised response [5] | normalised response [6] | normalised response [7] | normalised response [8] | normalised response [9] | normalised response [10] | normalised response [11] | normalised response [12] | normalised response [13] | normalised response [14] | normalised response [15] | normalised response [16] | normalised response [17] | normalised response [18] | normalised response [19] | normalised response [20] | normalised response [21] | normalised response [22] | normalised response [23] | normalised response [24] | normalised response [25] | normalised response [26] | normalised response [27] | normalised response [28] | normalised response [29] | normalised response [30] | normalised response [31] | normalised response [32] | normalised response [33] | normalised response [34] | normalised response [35] | normalised response [36] | normalised response [37]
COc1ccc(-c2ccc3c(N4CCOC[C@@H]4C)nc(N4CCOC[C@@H]4C)nc3n2)cc1CO [AZD8055] (100 nM) | 97.7% | 85.5% | 96.5% | 93.9% | 94.9% | 80.1% | 79.2% | 82.3% | 103% | 87.7% | 104% | 98.2% | 94.6% | 84.6% | 97.7% | 13.6% | 67% | 109% | 51.5% | 42.1% | 72% | 49.7% | 80.1% | 45.1% | 49.5% | 35.7% | 40.2% | 93% | 41.1% | 41.5% | 62.3% | 50.4% | 66.9% | 47.3% | 27.5% | 36.9% | 51.3%
C[C@]12CC[C@H](O)CC1=CC[C@@H]1[C@@H]2CC[C@]2(C)C(c3cccnc3)=CC[C@@H]12 [Abiraterone] (50 nM) | 96.5% | 104% | 100% | 107% | 101% | 109% | 106% | 105% | 96.5% | 110% | 95% | 101% | 58% | 63.7% | 116% | 128% | 108% | 111% | 99.7% | 99.7% | 104% | 104% | 107% | 104% | 108% | 81.5% | 101% | 124% | 105% | 106% | 103% | 99.8% | 95.1% | 101% | 103% | 105% | 100%
CC(C)c1c(C(=O)Nc2ccccc2)c(-c2ccccc2)c(-c2ccc(F)cc2)n1CC[C@@H](O)C[C@@H](O)CC(=O)O [Atorvastatin] (100 nM) | 109% | 99.2% | 103% | 93.4% | 103% | 109% | 80.9% | 109% | 98.1% | 88.1% | 94.1% | 98.4% | 105% |  | 81.6% | 120% | 98% | 86.4% | 91.5% | 111% | 94.8% | 102% | 98.6% | 103% | 108% | 103% | 94% | 105% | 103% | 103% | 97.5% | 98.4% | 102% | 93.8% | 98.9% | 98.9% | 98%
CO[C@H]1C[C@@H]2CC[C@@H](C)[C@@](O)(O2)C(=O)C(=O)N2CCCC[C@H]2C(=O)O[C@H]([C@H](C)C[C@@H]2CC[C@@H](OCCO)[C@H](OC)C2)CC(=O)[C@H](C)/C=C(\C)[C@@H](O)[C@@H](OC)C(=O)[C@H](C)C[C@H](C)/C=C/C=C/C=C/1C [Everolimus] (1 nM) | 98.3% | 103% | 96.7% | 67.1% | 96.3% | 79.1% | 85.8% | 94.4% | 79.8% | 89.6% | 109% | 106% | 105% | 80% | 99.9% | 121% | 102% | 83.1% | 83.7% | 82.7% | 91.9% | 70.6% | 83% | 72.4% | 72% | 72.1% | 63.6% | 98.2% | 69.3% | 77.8% | 82.9% | 91.6% | 75.2% | 57.1% | 65.9% | 71.6% | 91.9%
CCCCCCCCc1ccc(CCC(N)(CO)CO)cc1 [Fingolimod] (100 nM) | 97.3% | 109% | 101% | 110% | 100% | 103% | 87.9% | 109% | 88.7% | 111% | 102% | 104% | 78.8% | 95.9% | 115% | 122% | 103% | 91.7% | 100% | 97.4% | 99.9% | 97.4% | 99.7% | 100% | 101% | 92.5% | 95.8% | 107% | 105% | 97% | 100% | 105% | 96% | 107% | 107% | 106% | 103%
Cc1ccc(NC(=O)c2ccc(CN3CCN(C)CC3)cc2)cc1Nc1nccc(-c2cccnc2)n1 [Imatinib] (100 nM) | 110% | 102% | 99.8% | 62.7% | 102% | 63.2% |  | 106% | 104% | 108% | 102% | 96.8% | 119% | 70.4% | 112% | 110% | 101% | 111% | 103% | 111% | 99% | 106% | 103% | 104% | 111% | 107% | 109% | 97% | 97.9% | 106% | 96.8% | 104% | 98% | 106% | 105% | 107% | 98.6%
COc1ccccc1S(=O)(=O)Nc1ccc2c(c1)CN(C)C(=O)N2 [PFI-1] (100 nM) | 79.4% | 115% | 105% | 96.8% | 110% | 82.6% |  | 102% | 118% | 111% | 115% | 106% | 123% | 92.9% | 51.5% | 125% | 106% | 78.4% | 104% | 105% | 97.4% | 99.6% | 100% | 100% | 105% | 79% | 99.4% | 87.7% | 96.6% | 106% | 99.5% | 111% | 91.4% | 96.8% | 105% | 104% | 94.5%
C/C(=C\c1csc(C)n1)[C@@H]1C[C@@H]2O[C@]2(C)CCC[C@H](C)[C@H](O)[C@@H](C)C(=O)C(C)(C)[C@@H](O)CC(=O)O1 [Patupilone] (10 nM) | 76.8% | 97.9% | 95.7% | 84% | 99.5% | 108% | 102% | 29.3% | 97.3% | 106% | 79.5% | 93.6% | 92.9% | 103% | 99.4% | 34.5% | 96.3% | 110% | 79.9% | 101% | 94.6% | 90.9% | 104% | 77.5% | 105% | 56% | 55.1% | 114% | 80.2% | 105% | 97.9% | 89.1% | 100% | 53.4% | 99.7% | 107% | 98.7%
